26 compounds from patent US20250002507A1, “7,8-DIHYDRO-5H-1,6-NAPHTHYRIDINE DERIVATIVES AS POSITIVE ALLOSTERIC MODULATORS OF THE MUSCARINIC ACETYLCHOLINE RECEPTOR M4 FOR TREATING NEUROLOGICAL AND PSYCHIATRIC DISORDERS” (Vanderbilt University, priority 2021, published 2025) can be followed below.

This assay deals with T1, Human M4 (Homo sapiens, UniProt P08173).
T1 construct: expressed in transfected cells
T1 sequence (P08173 1-479): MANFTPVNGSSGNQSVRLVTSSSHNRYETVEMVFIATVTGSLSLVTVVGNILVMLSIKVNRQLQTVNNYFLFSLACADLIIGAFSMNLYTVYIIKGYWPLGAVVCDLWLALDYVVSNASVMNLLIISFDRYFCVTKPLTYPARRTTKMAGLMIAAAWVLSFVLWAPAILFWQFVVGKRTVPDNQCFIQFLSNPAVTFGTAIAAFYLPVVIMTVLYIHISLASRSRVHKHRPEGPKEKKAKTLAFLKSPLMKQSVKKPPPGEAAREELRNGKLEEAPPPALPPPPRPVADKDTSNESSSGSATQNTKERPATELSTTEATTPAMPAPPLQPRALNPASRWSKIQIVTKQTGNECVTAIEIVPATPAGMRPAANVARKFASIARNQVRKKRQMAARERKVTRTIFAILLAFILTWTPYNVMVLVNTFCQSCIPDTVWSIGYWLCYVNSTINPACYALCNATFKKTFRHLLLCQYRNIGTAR
In words: mAChR M4 cell-based functional assay (calcium flux, potentiation of EC20 acetylcholine response), hM4-Gqi5 CHO-K1 cells. The settings on record: for Emax at 30 µM: % ACh maximum at 30 μM; for EC50: calcium flux, read-out: Human M4 EC50. In outline: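 CHO-K1 cells stably expressing human M4 with chimeric Gqi5, loaded with Fluo-4 AM 50 min at 37 °C; calcium flux read by FDSS. 11-point 1:3 compound curves added, then EC20 acetylcholine at 144 s; potentiation of the EC20 response fitted by four-parameter logistic to give EC50 and Emax.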
On the technique in general: Calcium assays in cells follow changes in intracellular calcium, usually with a dye or a luminescent sensor.

Setting [1] is: CHO-K1, human M4, read-out: Emax.
The mark [2] stands for this setting: hM4-Gqi5 CHO-K1 cells, PAM of EC20 acetylcholine.
The mark [3] stands for this setting: Table 3, potentiation of EC20 acetylcholine response, CHO-K1 cells.
Where [4] appears, read: CHO-K1, Table 3, Human M4, read-out: Emax (% ACh maximum at 30 μM).

Broadly, the Emax is the maximal effect, on the per cent scale that the assay sets. What is called EC50 is the concentration needed to bring the measured effect to its halfway point.

Like-named read-outs stand apart in the source and are kept apart here.

For `Cc1cc2nccn2nc1N1CCc2ncc(-c3cnn(C)c3)cc2C1` [Compound 141, 6-(7-methylimidazo[1,2-b]pyridazin-6-yl)-3-(1-methylpyrazol-4-yl)-7,8-dihydro-5H-1,6-naphthyridine], the maximal response (Emax) at 30 µM under setting [1] was determined as 91%. Moreover, the concentration for a half-maximal effect (EC50) under setting [2] was 583 nM.

`Cc1c(N2CCc3ncc(-c4cnn(C5CC5)c4)cc3C2)nn2cnnc2c1C` [Compound 142, 3-(1-cyclopropylpyrazol-4-yl)-6-(7,8-dimethyl-[1,2,4]triazolo[4,3-b]pyridazin-6-yl)-7,8-dihydro-5H-1,6-naphthyridine]: the maximal response (Emax) at 30 µM under setting [1] was determined as 93%. Under setting [2], the EC50 came out at 169 nM.

For `Cc1cc2nncn2nc1N1CCc2ncc(-c3cnn(C4CC4)c3)cc2C1` [Compound 143, 3-(1-cyclopropylpyrazol-4-yl)-6-(7-methyl-[1,2,4]triazolo[4,3-b]pyridazin-6-yl)-7,8-dihydro-5H-1,6-naphthyridine], the maximal response (Emax) at 30 µM under setting [1] is 89%. The half-maximal effective concentration (EC50) under setting [2] is 138 nM.

With `Cc1cc2nccn2nc1N1CCc2ncc(-c3cnn(CC(C)C)c3)cc2C1` [Compound 144, 3-(1-isobutylpyrazol-4-yl)-6-(7-methylimidazo[1,2-b]pyridazin-6-yl)-7,8-dihydro-5H-1,6-naphthyridine], under setting [1], the Emax at 30 µM was determined as 44%. Further, the EC50 under setting [2] worked out at 266 nM.

As to `Cc1cc2nccn2nc1N1CCc2ncc(-c3cnn(C4CC4)c3)cc2C1` [Compound 145, 3-(1-cyclopropylpyrazol-4-yl)-6-(7-methylimidazo[1,2-b]pyridazin-6-yl)-7,8-dihydro-5H-1,6-naphthyridine], the maximum response (Emax) at 30 µM under setting [1] was 74%. For the same compound, the EC50 under setting [2] is 304 nM.

Regarding `Cc1c(N2CCc3ncc(-c4cnn(CC(C)C)c4)cc3C2)nn2cnnc2c1C` [Compound 146, 6-(7,8-dimethyl-[1,2,4]triazolo[4,3-b]pyridazin-6-yl)-3-(1-isobutylpyrazol-4-yl)-7,8-dihydro-5H-1,6-naphthyridine], the maximal effect (Emax) at 30 µM under setting [1] was 107%. Moreover, the EC50 under setting [2] stood at 227 nM.

Consider `Cc1cc2nncn2nc1N1CCc2ncc(-c3cnn(CC(C)C)c3)cc2C1` [Compound 147, 3-(1-isobutylpyrazol-4-yl)-6-(7-methyl-[1,2,4]triazolo[4,3-b]pyridazin-6-yl)-7,8-dihydro-5H-1,6-naphthyridine], for which, under setting [1], the maximum response (Emax) at 30 µM stood at 99%. Besides, the half-maximal effective concentration (EC50) under setting [2] stood at 477 nM.

As to `Cc1c(N2CCc3ncc(-c4cnn(C5CCNCC5)c4)cc3C2)nn2cnnc2c1C` [Compound 148, 6-(7,8-dimethyl-[1,2,4]triazolo[4,3-b]pyridazin-6-yl)-3-[1-(4-piperidyl)pyrazol-4-yl]-7,8-dihydro-5H-1,6-naphthyridine], the Emax at 30 µM under setting [1] came out at 106%. Further, under setting [2], the EC50 amounted to 296 nM.

For the compound `Cc1cc2nncn2nc1N1CCc2ncc(-c3cnn(C4CCNCC4)c3)cc2C1` [Compound 149, 6-(7-methyl-[1,2,4]triazolo[4,3-b]pyridazin-6-yl)-3-[1-(4-piperidyl)pyrazol-4-yl]-7,8-dihydro-5H-1,6-naphthyridine], the maximal effect (Emax) at 30 µM under setting [1] was found to be 107%. Moreover, the concentration giving a half-maximal response (EC50) under setting [2] was 316 nM.

`Cc1cc2nccn2nc1N1CCc2ncc(-c3cnn(C4CCNCC4)c3)cc2C1` [Compound 150, 6-(7-methylimidazo[1,2-b]pyridazin-6-yl)-3-[1-(4-piperidyl)pyrazol-4-yl]-7,8-dihydro-5H-1,6-naphthyridine]: the maximal effect (Emax) at 30 µM under setting [1] was determined as 87%. Under setting [2], the EC50 stood at 568 nM.

In the case of `Cc1cc2nncn2nc1N1CCc2ncccc2C1` [Compound 151, 6-(7-methyl-[1,2,4]triazolo[4,3-b]pyridazin-6-yl)-7,8-dihydro-5H-1,6-naphthyridine], the Emax (CHO-K1) worked out at 93%.

As to `Cc1c(N2CCc3ncc(N)cc3C2)nn2cnnc2c1C` [Compound 152, 6-(7,8-dimethyl-[1,2,4]triazolo[4,3-b]pyridazin-6-yl)-5,6,7,8-tetrahydro-1,6-naphthyridin-3-amine], the maximum response (Emax) (CHO-K1, read-out: Emax (% ACh maximum at 30 μM)) stood at 102%. Further, the EC50 under setting [3] turned out to be 1280 nM.

For the compound `CC(=O)Nc1cnc2c(c1)CN(c1nn3cnnc3c(C)c1C)CC2` [Compound 153, N-(6-(7,8-dimethyl-[1,2,4]triazolo[4,3-b]pyridazin-6-yl)-5,6,7,8-tetrahydro-1,6-naphthyridin-3-yl)acetamide], under setting [4], the maximum response (Emax) at 30 µM is 84%. For the same compound, under setting [3], the half-maximal effective concentration (EC50) was 3380 nM.

As for `Cc1c(N2CCc3ncc(NC(=O)C(C)C)cc3C2)nn2cnnc2c1C` [Compound 154, N-(6-(7,8-dimethyl-[1,2,4]triazolo[4,3-b]pyridazin-6-yl)-5,6,7,8-tetrahydro-1,6-naphthyridin-3-yl)isobutyramide], the Emax at 30 µM under setting [4] came to 79%. Moreover, the EC50 under setting [3] worked out at 3630 nM.

In the case of `COc1ccc(C(=O)Nc2cnc3c(c2)CN(c2nn4cnnc4c(C)c2C)CC3)cn1` [Compound 155, N-(6-(7,8-dimethyl-[1,2,4]triazolo[4,3-b]pyridazin-6-yl)-5,6,7,8-tetrahydro-1,6-naphthyridin-3-yl)-6-methoxynicotinamide], under setting [4], the Emax at 30 µM stood at 92%. Further, the 50% effective concentration (EC50) under setting [3] amounted to 966 nM.

Take `Cc1ccccc1C(=O)Nc1cnc2c(c1)CN(c1nn3cnnc3c(C)c1C)CC2` [Compound 156, N-(6-(7,8-dimethyl-[1,2,4]triazolo[4,3-b]pyridazin-6-yl)-5,6,7,8-tetrahydro-1,6-naphthyridin-3-yl)-2-methylbenzamide]: the maximal response (Emax) at 30 µM under setting [4] is 70%. In addition, the EC50 under setting [3] was 4210 nM.

For `Cc1cccc(C(=O)Nc2cnc3c(c2)CN(c2nn4cnnc4c(C)c2C)CC3)c1` [Compound 157, N-(6-(7,8-dimethyl-[1,2,4]triazolo[4,3-b]pyridazin-6-yl)-5,6,7,8-tetrahydro-1,6-naphthyridin-3-yl)-3-methylbenzamide], under setting [4], the maximal effect (Emax) at 30 µM worked out at 96%. The half-maximal effective concentration (EC50) under setting [3] was 785 nM.

On to `Cc1c(N2CCc3ncc(NC(=O)c4ccc(F)cc4)cc3C2)nn2cnnc2c1C` [Compound 158, N-(6-(7,8-dimethyl-[1,2,4]triazolo[4,3-b]pyridazin-6-yl)-5,6,7,8-tetrahydro-1,6-naphthyridin-3-yl)-4-fluorobenzamide], for which, under setting [4], the Emax at 30 µM is 79%. Besides, the EC50 under setting [3] amounted to 672 nM.

With `Cc1c(N2CCc3ncc(Oc4ccccc4F)cc3C2)nn2cnnc2c1C` [Compound 159, 6-(7,8-dimethyl-[1,2,4]triazolo[4,3-b]pyridazin-6-yl)-3-(2-fluorophenoxy)-5,6,7,8-tetrahydro-1,6-naphthyridine], under setting [4], the Emax at 30 µM was 109%. Moreover, the EC50 under setting [3] is 107 nM.

Regarding `Cc1c(N2CCc3ncc(Oc4cccc(F)c4)cc3C2)nn2cnnc2c1C` [Compound 160, 6-(7,8-dimethyl-[1,2,4]triazolo[4,3-b]pyridazin-6-yl)-3-(3-fluorophenoxy)-5,6,7,8-tetrahydro-1,6-naphthyridine], the Emax at 30 µM under setting [4] came out at 111%. In addition, under setting [3], the EC50 turned out to be 145 nM.

Take `COc1nc2c(cc1C)CN(c1nn3cnnc3c(C)c1C)CC2` [Compound 161, 6-(7,8-dimethyl-[1,2,4]triazolo[4,3-b]pyridazin-6-yl)-2-methoxy-3-methyl-5,6,7,8-tetrahydro-1,6-naphthyridine]: under setting [4], the maximal effect (Emax) at 30 µM turned out to be 105%. Moreover, the concentration giving a half-maximal response (EC50) under setting [3] was 2750 nM.

Consider `Cc1cnc2c(c1)CN(c1nn3cc(C(=O)N4CCOCC4)nc3cc1C)CC2` [Compound 162, (7-methyl-6-(3-methyl-7,8-dihydro-1,6-naphthyridin-6(5H)-yl)imidazo[1,2-b]pyridazin-2-yl)(morpholino)methanone], for which the maximal response (Emax) at 30 µM under setting [4] was 105%. Further, the concentration giving a half-maximal response (EC50) under setting [3] turned out to be 846 nM.

Regarding `Cc1c(N2CCc3ncc(Nc4cnn(C)c4)cc3C2)nn2cnnc2c1C` [Compound 163, 6-(7,8-dimethyl-[1,2,4]triazolo[4,3-b]pyridazin-6-yl)-N-(1-methyl-1H-pyrazol-4-yl)-5,6,7,8-tetrahydro-1,6-naphthyridin-3-amine], under setting [4], the maximal effect (Emax) at 30 µM worked out at 107%. Also, the EC50 under setting [3] was 754 nM.

Regarding `Cc1c(N2CCc3ncc(Nc4ccnn4C)cc3C2)nn2cnnc2c1C` [Compound 164, 6-(7,8-dimethyl-[1,2,4]triazolo[4,3-b]pyridazin-6-yl)-N-(1-methyl-1H-pyrazol-5-yl)-5,6,7,8-tetrahydro-1,6-naphthyridin-3-amine], the Emax at 30 µM under setting [4] worked out at 109%. Further, the EC50 under setting [3] stood at 152 nM.

With `CCC(C)(O)c1cnc2c(c1)CN(c1nn3cnnc3c(C)c1C)CC2` (stereo not drawn) [Compound 165, 2-(6-(7,8-dimethyl-[1,2,4]triazolo[4,3-b]pyridazin-6-yl)-5,6,7,8-tetrahydro-1,6-naphthyridin-3-yl)butan-2-ol], the maximum response (Emax) at 30 µM under setting [4] came to 102%. Besides, under setting [3], the 50% effective concentration (EC50) was found to be 1870 nM.

Turning to `Cc1c(N2CCc3ncc(C(C)(O)C4CC4)cc3C2)nn2cnnc2c1C` (stereo not drawn) [Compound 166, 1-cyclopropyl-1-(6-(7,8-dimethyl-[1,2,4]triazolo[4,3-b]pyridazin-6-yl)-5,6,7,8-tetrahydro-1,6-naphthyridin-3-yl)ethan-1-ol], the Emax at 30 µM under setting [4] stood at 95%. Further, the EC50 under setting [3] was determined as 1850 nM.
